In general, inhibition refers to the change of the read-out against control, counted positive when it falls.

Data on three compounds can be found in publication PMC8763382, “2-Sulfonylpyrimidines as Privileged Warheads for the Development of S. aureus Sortase A Inhibitors” (Frontiers in Molecular Biosciences, 2022).

The structures appear in SMILES notation. “And” between values parts separate entries of the source, which are not always exact repeats. Equal entries are not always repeated.

In data set [1] the target is T1, NS2B-NS3 from Zika virus (ZIKV) (Zika virus, UniProt Q32ZE1).
T1 construct: The ZIKV NS2B/NS3 protease is a serine protease and contains two non-catalytic cysteine residues
As to the kind of experiment: protease selectivity panel, fluorometric assay ZIKV NS2B/NS3 protease. The class given is biochemical. The conditions noted are these: 100 µM inhibitor; read-out: ZIKV inhibition relative to the DMSO control. The method, then: (§1) To investigate how these sulfonylpyrimidines affect the activity of other cysteine and serine proteases, a selectivity panel was constructed from a matrix of 6 diverse sulfonylpyrimidines and 6 different proteases. The compounds were assayed at a final compound concentration of 100 µM for the cysteine proteases human cathepsin B (hCatB), cathepsin L (hCatL), and T. brucei rhodesain (Rd). Furthermore, the serine proteases NS2B-NS3 from Zika virus (ZIKV), the homologous protease from Dengue virus (DENV), and the human protease urokinase plasminogen activator (uPA) were tested for their susceptibility.
(§2) Fluorometric assays of the ZIKV/DENV NS2B/NS3 protease were performed as described previously ([Maus et al., 2021]). The assay was carried out in triplicates at 25°C in assay buffer (50 mM Tris, pH 9.0, 20% glycerol (v/v), and 1 mM CHAPS). 100 µM Boc-Gly-Arg-Arg-AMC (Bachem, Bubendorf, Switzerland) was used as a substrate. Fluorometric assays for cathepsin B, cathepsin L, and rhodesain (Calbiochem, Merck Millipore, Burlington, Massachusetts) were performed as described previously ([Klein et al., 2020a]). Cbz-Phe-Arg-AMC (Bachem, Bubendorf, Switzerland) was used as substrate (100 μM for cathepsin B, 6.5 μM for cathepsin L, and 10 µM for rhodesain). Fluorometric assays for urokinase plasminogen activator were performed as described previously ([Angelini et al., 2012]). 240 µM Cbz-Gly-Arg-Arg-AMC (Bachem, Bubendorf, Switzerland) was used as a substrate.

Data set [2] concerns the target T2, S. aureus SrtA (Staphylococcus aureus, UniProt Q2FV99).
T2 construct: His tag (inferred from IMAC on a HisTrap column); made in house; host or cells: E. coli BL21 Gold (DE3)
Description: fluorometric enzyme assay of SrtA transpeptidation (Abz-LPETG-Dap(Dnp)-OH substrate). The class given is biochemical. The conditions noted are these: for k inact: maximum inactivation rate; for k inact / KI (inactivation) / k 2nd: Tris pH 7.50, n. i. = <20% inhibition at 100 µM; for KI (inactivation): read-out: KI, dissociation constant of the reversible enzyme-inhibitor complex; for k 2nd: second-order rate of inhibition. Here is the method: To evaluate the inhibition potency of the parent sulfonylpyrimidine 4, this compound was tested by means of a fluorometric enzyme assay with recombinantly expressed S. aureus SrtA ([Schmohl et al., 2017b]) and Abz-LPETG-Dap (Dnp)-OH as substrate. […] To verify the irreversible mode of inhibition, we determined the maximum inactivation rate k inact, the dissociation constant of the reversible enzyme-inhibitor complex KI, and the second-order rate of inhibition k 2nd. For compound 4, a k inact = 0.00065 s^−1 was found, which is very low compared to other covalent SrtA inhibitors ([Chan et al., 2017]; [Barthels et al., 2020]; [Jaudzems et al., 2020]).
Inhibition assays of S. aureus SrtA transpeptidation reactions were performed as described previously ([Barthels et al., 2020]). Briefly, the recombinantly expressed SrtA (final concentration: 1 µM) was incubated in assay buffer (50 mM Tris, 150 mM NaCl, 5 mM CaCl2, pH 7.50) with 25 µM of the FRET-pair substrate Abz-LPETG-Dap (Dnp)-OH (Genscript, Piscataway, New Jersey) and 0.5 mM tetraglycine (Sigma Aldrich, St. Louis, Missouri). Inhibitors were added from DMSO stocks. Reactions were initiated by addition of SrtA and monitored for 30 min at 30°C in an Infinite M200 Pro plate reader with λex 320 nm/λem 430 nm (Tecan, Männedorf, Switzerland). Three technical replicates were carried out for each inhibitor in black flat-bottom 96-well plates (Greiner bio-one, Kremsmünster, Austria). The enzyme kinetics of irreversible SrtA inactivation were analyzed as described previously ([Barthels et al., 2020]).

Data set [3] has as its target T3, cathepsin L (hCatL) (Homo sapiens, UniProt P07711).
T3 construct: purchased Calbiochem, Merck Millipore
Description: protease selectivity panel, fluorometric assay cathepsin L. It is filed as biochemical. The conditions noted are these: 100 µM inhibitor; read-out: CatL inhibition relative to the DMSO control. Here is the method:
as §1, §2

Data set [4] has as its target T4, T. brucei rhodesain (Rd) (Trypanosoma brucei rhodesiense, UniProt Q95PM0).
T4 construct: purchased Calbiochem, Merck Millipore
As to the kind of experiment: protease selectivity panel, fluorometric assay rhodesain. The class given is biochemical. The conditions noted are these: 100 µM inhibitor; n. i. = no inhibition at 100 µM; read-out: Rd inhibition relative to the DMSO control. Here is the method:
as §1, §2

Data set [5] can be described thus: cysteine reactivity assay (competitive fluorescence assay with probe 8). The class given is physicochemical. The source says: In order to study the kinetics of sulfonylpyrimidines reacting with free cysteine in solution, a strategy for a competitive fluorescence-based assay was adapted from previous works ([Epps and Taylor, 2001]; [Sameshima et al., 2017]). […] The reaction of probe 8 with cysteine liberates 4-methylumbelliferone as a fluorometrically detectable product (Figure 7A), and thus, the fluorescence increase can be described by the second-order rate constant k probe (Equation 1).
Upon the addition of competitive and irreversible cysteine modifiers such as sulfonylpyrimidines, the fluorescence increase of the probe reaction was hyperbolically attenuated (Figure 7B). According to the conceptual deduction described previously ([Epps and Taylor, 2001]; [Sameshima et al., 2017]), the experimental fluorescence curves can be analyzed by nonlinear regression as first-order reaction progress curves (Equation 2). The parameter k obs describes the curvature corresponding to the sum of the competing kinetics (Equation 3). Under the assumptions that 1) the competitive reaction between sulfonylpyrimidines vs. probe with cysteine is started by simultaneous addition, and 2) sulfonylpyrimidines are added at a much higher concentration than cysteine (5 µM) and the probe (5 µM), the k obs values depend substantially on the k chem value. The compound-specific second-order inactivation parameter k chem can be determined by linear regression from the k obs values of the dilution series (Equation 4). d[FL]/dt=kprobe[Cys][probe] (1) FL=[Cys]total⋅kprobe [probe]/kprobe [probe] + kchem [sulfonylpyrimidine](1−e^−kobs⋅t) (2) kobs=kchem [sulfonylpyrimidine]+kprobe [probe] (3) kchem=kobs/[sulfonylpyrimidine] (4)
Kinetic characterization of the reaction between sulfonylpyrimidines and cysteine was performed in degassed phosphate buffer (1×PBS, pH 7.5) or individual cases in bicarbonate buffer (20 mM NaHCO3, 100 mM NaCl, pH 7.5). Three technical replicates were carried out for each sulfonylpyrimidine in black flat-bottom 96-well plates. For this purpose, 50 µL buffered solution (including 5% (v/v) DMSO) of the respective sulfonylpyrimidine derivative (final: 250–3 µM) and the cysteine reactive probe 8 (final: 5 µM) were premixed. Reactions were initiated by the addition of 50 µL cysteine (final: 5 µM), dissolved in the respective buffer, and monitored for 30 min at 30°C in an Infinite M200 Pro plate reader with λex 380 nm/λem 460 nm. To calculate k obs and k chem values, fluorescence curves were fitted using the same non-linear regression as for in vitro inhibition of SrtA ([Barthels et al., 2020]).

Data set [6] concerns the target T5, human cathepsin B (hCatB) (Homo sapiens, UniProt P07858).
T5 construct: purchased Calbiochem, Merck Millipore
Description: protease selectivity panel, fluorometric assay cathepsin B. The conditions noted are these: 100 µM inhibitor; read-out: CatB inhibition relative to the DMSO control. The class given is biochemical. The method, then:
as §1, §2

On the set-up of data set [7]: method as in Bauer et al. The conditions noted are these: ref Bauer et al.; cited from earlier work.
In data set [8] the test system is SrtA. Also noted: method as in Jaudzems et al., 2020. The conditions noted are these: after 16 h of incubation with 100 µM inhibitor; ref Jaudzems et al., 2020; cited from earlier work.
The nature of data set [9]: in-solution reaction with free cysteine (ESI-MS / LC/MS). It is filed as physicochemical. The conditions noted are these: compound 100 µM, cysteine 100 µM, phosphate buffered solution pH 7.5.
Description: Thus, we determined the point of nucleophilic thiol attack by means of ESI mass spectrometry between the reaction of compound 7a and cysteine in phosphate buffered solution at pH 7.5.
Furthermore, the influence of different solvents on the reaction of sulfonylpyrimidines with thiols in solution was investigated.
To a solution of 100 µM cysteine in phosphate-buffered saline (1×, pH 7.5), compound 5a or 7a (100 μM, 5% DMSO) was added and incubated for 10 min at room temperature. The negative labeling control was performed by mock treatment with DMSO. Samples were analyzed by LC/MS using an Agilent 1100 series HPLC system with an Agilent Poroshell 120 EC-C18 column (150 × 2.10 mm 4 μm; mobile phase: ACN/H2O 45:55 + 0.1% formic acid; flow rate: 0.4 ml/min) and electron spray ionization with the Agilent 1100 series LC/MSD Trap in positive ionization mode.
Data set [10] deals with T2, S. aureus SrtA. As to the kind of experiment: MALDI-TOF-MS of SrtA treated with inhibitor. The conditions noted are these: SrtA 10 µM, inhibitor 100 µM, 1 h room temperature. Here is the method: By using MALDI-TOF mass spectrometry, we aimed to determine the mode of inhibitory action in an enzymatic context. For the native SrtA, we found a protein mass at m/z = 17,806.
An S. aureus SrtA stock solution was diluted in 100 μL assay buffer (50 mM Tris, 150 mM NaCl, 5 mM CaCl2, pH 7.50) to a final concentration of 10 µM. Compound 7a was dissolved in DMSO and added to SrtA at a final concentration of 100 μM. The protein samples were allowed to react for 1 h at room temperature and subsequently, these were desalted using Zeba^TM Spin desalting columns (7 kDa MWCO, 0.5 ml; Thermo Scientific) according to the manufacturer’s instructions. For MALDI sample preparation, the desalted solution was mixed 1:1 with a matrix combination of equal amounts α-cyano-4-hydroxycinnamic acid (20 mg/ml dissolved in 70% acetonitrile and 30% of formic acid in water at a concentration of 5%) and 2,5-dihydroxybenzoic acid (20 mg/ml dissolved in 70% acetonitrile and 30% of trifluoroacetic acid in water at a concentration of 0.1%). The resulting mixture was allowed to dry slowly on the MALDI target prior to introduction into the mass spectrometer. […] The acceleration voltage was set to 20 kV and the mass spectra were recorded in positive ion linear mode. […] Samples were measured at a laser power of 60% with random walk ionization across the sample spot.

[11] abbreviates: phosphate buffer (1×PBS) pH 7.5.

T2 sequence (Q2FV99 60-206): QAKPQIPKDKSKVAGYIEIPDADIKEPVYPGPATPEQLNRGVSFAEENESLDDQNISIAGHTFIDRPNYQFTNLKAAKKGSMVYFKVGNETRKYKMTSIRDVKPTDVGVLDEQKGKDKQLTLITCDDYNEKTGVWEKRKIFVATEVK
T1 sequence (Q32ZE1 1499-1676): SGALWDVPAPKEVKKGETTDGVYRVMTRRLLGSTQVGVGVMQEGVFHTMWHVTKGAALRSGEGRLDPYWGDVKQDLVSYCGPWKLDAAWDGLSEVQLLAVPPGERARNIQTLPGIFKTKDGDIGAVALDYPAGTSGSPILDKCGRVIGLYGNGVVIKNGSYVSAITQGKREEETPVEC
T1 sequence (Q32ZE1 1421-1460): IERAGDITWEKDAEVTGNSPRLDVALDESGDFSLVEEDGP
T3 sequence (P07711 114-333): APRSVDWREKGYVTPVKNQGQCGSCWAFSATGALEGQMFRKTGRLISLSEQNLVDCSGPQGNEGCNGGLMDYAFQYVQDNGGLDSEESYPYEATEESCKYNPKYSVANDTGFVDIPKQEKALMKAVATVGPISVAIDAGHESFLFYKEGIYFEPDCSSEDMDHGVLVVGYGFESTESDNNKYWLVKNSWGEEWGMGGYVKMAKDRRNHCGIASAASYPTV
T4 sequence (Q95PM0 entry or part of it): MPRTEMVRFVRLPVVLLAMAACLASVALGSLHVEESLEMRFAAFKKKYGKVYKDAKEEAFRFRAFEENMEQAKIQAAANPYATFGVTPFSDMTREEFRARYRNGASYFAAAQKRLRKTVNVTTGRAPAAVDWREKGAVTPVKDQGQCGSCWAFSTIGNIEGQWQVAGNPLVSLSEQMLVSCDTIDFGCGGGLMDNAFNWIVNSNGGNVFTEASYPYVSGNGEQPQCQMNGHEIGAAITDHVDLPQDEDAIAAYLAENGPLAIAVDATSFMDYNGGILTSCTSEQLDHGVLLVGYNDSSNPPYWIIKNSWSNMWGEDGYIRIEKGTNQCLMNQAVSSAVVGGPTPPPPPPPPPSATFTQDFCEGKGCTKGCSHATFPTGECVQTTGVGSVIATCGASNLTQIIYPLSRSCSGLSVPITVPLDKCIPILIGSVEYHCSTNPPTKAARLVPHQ

For the compound `CS(=O)(=O)c1ncc(Cl)c(C(=O)O)n1` [Compound 5c], the inhibition at 100 µM amounted to 7.7% in data set [1]; 19.6% in [2] (read-out: SrtA inhibition relative to the DMSO control); 6.6% in data set [3]; 20% in [4]; 5.8% in data set [6]. The “SrtA inhibition (in words)” value in data set [2] (final inhibitor concentration of 300 µM) was “no SrtA inhibition”. In addition, the Cysteine k chem was 0.365 ± 0.0212 M⁻¹ s⁻¹ in [5] (bicarbonate buffered solution pH 7.5); 1.05 M⁻¹ s⁻¹ and 1.05 ± 0.0335 M⁻¹ s⁻¹ in [5] (setting [11]). The “k chem vs. glutathione” value in data set [7] was 82 M^−1min-^1.
As to `CS(=O)(=O)c1ncc(Cl)c(C(=O)Nc2ccccc2Cc2ccccc2)n1` [Compound 4], the SrtA inhibition in data set [8] is 97%. Also, in [2], the k inact was 0.00065 s⁻¹ and 0.0006 s⁻¹ and 0.00065 ± 0.00007 s⁻¹; the KI (inactivation) stood at 47.1 ± 15.7 µM; the “k 2nd” value is 870 M⁻¹ min⁻¹ and 870 ± 170 M⁻¹ min⁻¹.
`CS(=O)(=O)c1ncc(Br)c(C(=O)Nc2cccc(C(=O)c3ccccc3)c2)n1` [Compound 7a]: the “time to quantitative reaction with cysteine” value in [9] was “less than 10 min”. Further, in data set [2] (SrtA k 2nd over cysteine k chem), the “S. I. (k 2nd/k chem)” value is recorded as 268. In data set [2], the k inact is 0.01493 ± 0.00132 s⁻¹, the KI (inactivation) was 32 ± 5.07 µM and the “k 2nd” value is 28,185 ± 2,117 M^−1min^−1. The compound also came in with a Cysteine k chem in data set [5] (setting [11]) of 1.748 ± 0.375 M⁻¹ s⁻¹. Moreover, in data set [10], the “covalent modification of SrtA (in words)” value is “quantitative conversion”.
